Laboratory results from patent publication US12168085B2, “Surgical system and methods of use” (priority 2021, dated 2024).

Legend:
[1] = time to reach plasma concentrations; format: in vivo; conditions: when given preoperatively
myofibroblast formation = conditions: Ajmal et al. (2003); cited from earlier work

time to reach plasma concentrations [1] [min] | SMILES | effect on myofibroblast formation (myofibroblast formation)
5 to 15 | NC[C@H]1CC[C@H](C(=O)O)CC1 [tranexamic acid, trans-4-(aminomethyl)cyclohexanecarboxylic acid] | 
 | O=S(=O)([O-])CCS.[Na+] [MESNA, sodium 2-mercaptoethane sulfonate] | diminish myofibroblast formation
